From ChEMBL document CHEMBL5042526, “Design, Synthesis, and Biological Evaluation of Triazolone Derivatives as Potent PPARα/δ Dual Agonists for the Treatment of Nonalcoholic Steatohepatitis” (J Med Chem, 2022) come the findings set out here.

The target in experiment [1] is T1, Peroxisome proliferator-activated receptor alpha (Mus musculus, UniProt P23204).
T1 sequence (P23204 whole entry): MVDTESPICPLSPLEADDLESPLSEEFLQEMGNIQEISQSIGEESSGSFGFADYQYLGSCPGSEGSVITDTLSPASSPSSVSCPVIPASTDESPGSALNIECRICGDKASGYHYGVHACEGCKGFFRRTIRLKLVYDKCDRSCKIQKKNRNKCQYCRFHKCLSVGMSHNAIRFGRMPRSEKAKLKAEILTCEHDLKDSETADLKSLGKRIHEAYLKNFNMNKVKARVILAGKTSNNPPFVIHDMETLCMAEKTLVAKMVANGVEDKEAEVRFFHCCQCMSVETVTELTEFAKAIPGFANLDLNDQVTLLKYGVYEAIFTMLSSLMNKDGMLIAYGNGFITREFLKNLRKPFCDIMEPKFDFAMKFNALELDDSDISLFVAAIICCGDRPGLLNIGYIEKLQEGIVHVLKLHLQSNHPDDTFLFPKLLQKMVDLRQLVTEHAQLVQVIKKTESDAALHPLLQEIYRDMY
The experiment is described as follows: Agonist activity at mouse PPARalpha transfected in Cos7 cells co-expressing with pBIND and pGL4.35 Gal4 UAS Luc reporter plasmid by measuring luciferase activity incubated for 16 hrs by luciferase reporter gene assay. In general terms: In a reporter assay the amount or activity of a reporter protein is the signal.

Experiment [2] deals with T2, Peroxisome proliferator-activated receptor gamma (Mus musculus, UniProt P37238).
T2 sequence (P37238 whole entry): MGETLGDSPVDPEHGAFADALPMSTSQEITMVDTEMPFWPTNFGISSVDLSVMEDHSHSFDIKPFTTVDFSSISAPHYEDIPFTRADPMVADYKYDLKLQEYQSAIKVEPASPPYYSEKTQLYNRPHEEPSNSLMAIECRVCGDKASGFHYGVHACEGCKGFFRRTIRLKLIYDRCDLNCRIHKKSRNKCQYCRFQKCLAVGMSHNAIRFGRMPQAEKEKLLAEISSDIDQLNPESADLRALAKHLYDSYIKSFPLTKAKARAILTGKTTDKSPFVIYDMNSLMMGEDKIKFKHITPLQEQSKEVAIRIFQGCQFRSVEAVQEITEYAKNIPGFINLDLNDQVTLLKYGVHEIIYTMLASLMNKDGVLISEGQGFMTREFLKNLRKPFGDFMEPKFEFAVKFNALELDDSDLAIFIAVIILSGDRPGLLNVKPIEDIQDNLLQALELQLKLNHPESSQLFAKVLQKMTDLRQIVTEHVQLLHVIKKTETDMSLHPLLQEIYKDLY
Kind of experiment: Agonist activity at mouse PPARgamma in Cos7 cells transfected with pBIND and pGL4.35 Gal4 UAS Luc reporter plasmid by measuring luciferase activity incubated for 16 hrs by luciferase reporter gene assay.

In another experiment the test system is HepG2. The experiment is described as follows: Agonist activity against PPARalpha/delta (unknown origin) assessed as upregulation of CPT1A mRNA expression in human HepG2 cells at 8 nM incubated for 12 hrs by RT-PCR analysis. Type of experiment: cell-based. As to conditions: filed as agonist.
Experiment [3] has as its system Mus musculus. The experiment is described as follows: In vivo agonist activity at PPARalpha/delta assessed as upregulation of Kit11 mRNA expression in C57BL/6Nifdc mouse liver at 10 mg/kg, po for 4 days. To be noted: time 4.0 day. Type of experiment: functional, organism-based.
The subject of experiment [4] is Mus musculus. The experiment is described as follows: In vivo agonist activity at PPARalpha/delta assessed as upregulation of […] mRNA expression in C57BL/6Nifdc mouse liver at 10 mg/kg, po for 4 days. The format is functional, organism-based. As to conditions: time 4.0 day.
For experiment [5], the system named is Mus musculus. The experiment is described as follows: In vivo agonist activity at PPARalpha/delta assessed as upregulation of Cpt2 mRNA expression in C57BL/6Nifdc mouse liver at 10 mg/kg, po for 4 days. The format is functional, organism-based. To be noted: time 4.0 day.
In experiment [6] the test system is Mus musculus. Kind of experiment: In vivo agonist activity at PPARalpha/delta assessed as upregulation of Acox1 mRNA expression in C57BL/6Nifdc mouse liver at 10 mg/kg, po for 4 days. As to conditions: time 4.0 day. The format is functional, organism-based.
Experiment [7] concerns Mus musculus. Kind of experiment: In vivo agonist activity against PPARalpha/delta assessed as upregulation of Pdk4 mRNA expression in C57BL/6Nifdc mouse liver at 10 mg/kg, po for 4 days. Type of experiment: functional, organism-based. As to conditions: time 4.0 day.
Experiment [8] has as its system Mus musculus. The experiment is described as follows: In vivo agonist activity against PPARalpha/delta assessed as upregulation of Ugt1a9 mRNA expression in C57BL/6Nifdc mouse liver at 10 mg/kg, po for 4 days. The format is functional, organism-based. To be noted: time 4.0 day.
For experiment [9], the system named is Mus musculus. Kind of experiment: In vivo agonist activity against PPARalpha/delta assessed as upregulation of Pex11a mRNA expression in C57BL/6Nifdc mouse skeletal muscle at 10 mg/kg, po for 4 days. The format is functional, organism-based. As to conditions: time 4.0 day.
The subject of experiment [10] is Mus musculus. The experiment is described as follows: In vivo agonist activity against PPARalpha/delta assessed as upregulation of Slc25a20 mRNA expression in C57BL/6Nifdc mouse skeletal muscle at 10 mg/kg, po for 4 days. Type of experiment: functional, organism-based. To be noted: time 4.0 day.
In experiment [11] the test system is Mus musculus. Kind of experiment: In vivo agonist activity against PPARalpha/delta assessed as upregulation of Angptl4 mRNA expression in C57BL/6Nifdc mouse skeletal muscle at 10 mg/kg, po for 4 days. Type of experiment: functional, organism-based. To be noted: time 4.0 day.
The subject of experiment [12] is Mus musculus. The experiment is described as follows: In vivo agonist activity against PPARalpha/delta assessed as upregulation of […] mRNA expression in C57BL/6Nifdc mouse skeletal muscle at 10 mg/kg, po for 4 days. To be noted: time 4.0 day. Type of experiment: functional, organism-based.
Experiment [13] concerns Mus musculus. Kind of experiment: Anti-NASH activity in HF-CDAA-induced nonalcoholic steatohepatitis C57BL/6JNifdc mouse model assessed as lipid drop size at 3 to 30 mg/kg, po by H and E staining method. The format is functional, organism-based. As to conditions: dose 3-30 mg/kg.
For experiment [14], the system named is Mus musculus. Kind of experiment: Anti-NASH activity in HF-CDAA-induced nonalcoholic steatohepatitis C57BL/6JNifdc mouse model assessed as decrease in level of serum AST 10 mg/kg, po by automatic biochemical analysis. The format is functional, organism-based.
The subject of experiment [15] is Mus musculus. Kind of experiment: Anti-inflammatory activity in HF-CDAA-induced nonalcoholic steatohepatitis C57BL/6JNifdc mouse model assessed as decrease in Il1b mRNA expression at 10 mg/kg, po. The format is functional, organism-based.
The test system of experiment [16] is Mus musculus. The experiment is described as follows: Anti-inflammatory activity in HF-CDAA-induced nonalcoholic steatohepatitis C57BL/6JNifdc mouse model assessed as decrease in Ccl4 mRNA expression at 10 mg/kg, po. The format is functional, organism-based.
The next experiment relates to THP-1. Kind of experiment: Anti-inflammatory activity in human THP1-derived macrophages assessed as decrease in secretion of LPS-induced IL-6 level at 8 to 200 nM for 12 hrs by ELISA kit method. The format is functional, cell-based. As to conditions: dose 8-200 nM.
Experiment [17] deals with Mus musculus. Kind of experiment: Anti-fibrosis effect in HF-CDAA-induced nonalcoholic steatohepatitis C57BL/6JNifdc mouse model assessed as expression of Col1a1 marker at 10 mg/kg, po after 20 hrs by Western blot analysis. Type of experiment: functional, organism-based. In general terms: Immunoblotting shows a protein as a band on a membrane.
In a further experiment the test system is C2C12. The experiment is described as follows: Agonist activity against PPARalpha/delta (unknown origin) assessed as upregulation of Cpt1A mRNA expression in […] cells at 8 nM incubated for 12 hrs by RT-PCR analysis. The format is cell-based. To be noted: filed as agonist.
Experiment [18] relates to AML12. The experiment is described as follows: Agonist activity against PPARalpha/delta (unknown origin) assessed as upregulation of Cpt1A mRNA expression in […] cells at 8 nM incubated for 12 hrs by RT-PCR analysis. Type of experiment: cell-based. As to conditions: filed as agonist.
The subject of experiment [19] is AML12. Kind of experiment: Agonist activity against PPARalpha/delta (unknown origin) assessed as upregulation of Pdk4 mRNA expression in […] cells at 8 nM incubated for 12 hrs by RT-PCR analysis. The format is cell-based. As to conditions: filed as agonist.

Calls of active or inactive are those of the source. The calls are words filed in the database; no cut-off is given here.

For orientation: EC50 means the concentration giving half of the maximal effect. Turning to `Cc1cc(Cn2ncn(-c3ccc(OC(F)(F)F)cc3)c2=O)cc(C)c1OC(C)(C)C(=O)O`, the EC50 in [1] was determined as 16.8 nM; in [2], 1010 nM. Further, the outcome in the experiment with HepG2, with Mus musculus [3], with Mus musculus [4], with Mus musculus [5], in the experiment on Mus musculus [6] and in the experiment with Mus musculus [7] was Active. Moreover, the outcome in the experiment with Mus musculus [8], with Mus musculus [9], in the experiment with Mus musculus [10], in the experiment with Mus musculus [11], in the experiment on Mus musculus [12] and with Mus musculus [13] was Active. In addition, the result in the experiment with Mus musculus [14], in the experiment on Mus musculus [15], in the experiment with Mus musculus [16], with THP-1, in the experiment with Mus musculus [17] and in the experiment with C2C12 was Active. Besides, the outcome in the experiment with AML12 [18] and in the experiment with AML12 [19] was Active.
